Experimental data: patent US20210139540A1, “MULTIVALENT LIGAND-LIPID CONSTRUCTS” (priority 2014, published 2021)

System: kodecytes
Assay: Complement induced cell lysis of kodecytes in pooled AB serum
Type: cell-based
Details: for Abs 1: duplicate 1; for Abs 2: duplicate 2; for (A1 and A2): from duplicates; for Sensitivity of kodecytes to lysis compared with kodecytes prepared using construct 49: complement mediated autolysis; for Calculated %: percentage of cells lysed using standard curve; for Measured %: percentage of cells lysed, construct 49 set as 100; for Degree of lysis: qualitative
Protocol: Preparation of kodecytes Stock solutions of constructs (35, 47, 48 and 49) were prepared at a concentration of 1 mg/mL in a red blood cell (RBC) preservative solution (CELPRESOL™, CSL Limited). Prior to dilution each stock solution was vortexed for 45 seconds at room temperature (r.t.). A volume of 100 μL of diluted stock solution was added to a volume of 100 μL centrifugally packed RBCs (packed cell volume; PCV). The total volume of 200 μL suspended RBCs was incubated at 37° C. for 2 hours before washing with CELPRESOL™ and re-suspending the modified RBCs (“kodecytes”) at a concentration of 5% PCV in CELPRESOL™.
Prior to use kodecytes were washed and re-suspended 5% PCV in phosphate buffered saline (PBS). Uniformity of concentration of RBCs was confirmed by adding a volume of 40 μL of kodecyte suspension to a volume of 1 mL of Drabkins solution and the absorbance measured at 540 nm against Drabkins solution (blank). Variations in measured absorbances was reduced to less than 10% by adjustment of suspending volume.
The ability of constructs to induce complement mediated autolysis was evaluated by a method analogous to that described in the publication of Henry and Komarraju (2012). For the present studies kodecytes prepared using construct 49 were used as a 100% lysis control. A volume of 200 μL pooled AB serum and a volume of 100 μL kodecytes prepared using construct 49 at a concentration of 750 μg/mL was used as the 100% lysis control. A volume of 200 μL pooled AB serum and a volume of 100 μL O group RBCs (prepared as kodecytes without the addition of construct) was used as the 0% lysis control. To measure the ability of constructs to induce complement mediated autolysis of kodecytes volumes of 200 μL of pooled AB serum were dispensed into duplicate sets of test tubes. A volumes of 100 μL kodecytes was added to the tubes before incubation at 37° C. for 1 hour. Following incubation a volume of 1 μL ethylenediaminetetraacetic acid (EDTA) as its dipotassium salt
was added to each to each test tube to provide a final concentration of 0.1 mM EDTA. The test tubes were then centrifuged and the characteristics of the sedimented RBCs and supernatant observed (Table 2 and FIG. 2). In addition a volume of 160 μL of the cell free supernatant was removed and added to a volume of 1 mL of Drabkins solution. The absorbance of the solution was then measured at 540 nm against a volume of 160 μL pooled AB serum added to a volume of 1 mL of Drabkins solution (blank). The absorbance of the supernatant was calculated as a percentage of the initial absorbance of the suspension of kodecytes. The percentage of cells lysed was calculated against a standard curve.

[1] = absorbance 540 nm of supernatant, concentration not given
[2] = absorbance 540 nm, concentration not given
[3] = pooled AB serum, 37° C., 1 hour, construct concentration not given
[4] = absorbance 540 nm, 100% lysis control (construct 49 at 750 μg/mL)

Compound	Abs 1 [1]	Abs 2 [1]	(A1 and A2) [2]	Sensitivity of kodecytes to lysis compared with kodecytes prepared using construct 49 (pooled AB serum)	Calculated % (concentration not given) [%]	Measured % (concentration not given)	Degree of lysis [3]	Abs 1 [4]	Abs 2 [4]	(A1 and A2) [4]	Calculated % (100% lysis control (construct 49 at 750 μg/mL)) [%]	Degree of lysis (100% lysis control: kodecytes prepared using construct 49 at 750 μg/mL)
Galili-CMG2-Ad-DOPE [construct 47]	.224	.243	.234	somewhat more sensitive	65	128%	Partial					
CCCCCCCC/C=C\CCCCCCCC(=O)OCC(COP(=O)(O)OCCNC(=O)CCCCC(=O)NCCCO[C@@H]1OC(CO)[C@@H](O[C@@H]2OC(CO)[C@H](O)C(O[C@H]3OC(CO)[C@H](O)C(O)C3NC(C)=O)C2O)C(O)C1NC(C)=O)OC(=O)CCCCCCC/C=C\CCCCCCCC (stereo partly shown) [construct 48, GalNAcα1-3Galβ1-4GlcNAc-Ad-DOPE]	.349	.345	.347	approximately twice as sensitive	95	190%	Complete					
Galα1-3Galβ1-4GlcNAc-Ad-DOPE [construct 49]	.178	.187	.183		51	Set as 100%	Partial	.303	.310	.307	85	Complete
